{"source": "ChEMBL document CHEMBL1158075", "about": "“Brominated cyclodipeptides from the marine sponge Geodia barretti as selective 5-HT ligands” (J Nat Prod, 2006)", "key": {"[1]": {"target": "T1, 5-hydroxytryptamine receptor 2C (Homo sapiens, UniProt P28335)", "T1 sequence (P28335 whole entry)": "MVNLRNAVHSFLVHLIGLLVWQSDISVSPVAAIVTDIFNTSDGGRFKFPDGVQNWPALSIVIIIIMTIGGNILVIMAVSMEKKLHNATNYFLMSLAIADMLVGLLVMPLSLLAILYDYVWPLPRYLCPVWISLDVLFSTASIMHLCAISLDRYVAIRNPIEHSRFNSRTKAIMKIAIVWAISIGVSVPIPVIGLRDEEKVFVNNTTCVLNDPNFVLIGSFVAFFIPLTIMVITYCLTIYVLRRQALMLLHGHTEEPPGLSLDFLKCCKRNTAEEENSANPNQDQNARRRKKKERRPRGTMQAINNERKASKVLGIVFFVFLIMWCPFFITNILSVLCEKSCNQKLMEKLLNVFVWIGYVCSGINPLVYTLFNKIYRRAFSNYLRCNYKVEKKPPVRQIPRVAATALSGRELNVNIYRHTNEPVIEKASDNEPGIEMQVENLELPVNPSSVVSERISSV", "test": "Displacement of [N-methyl-3H]LSD from human 5HT2C receptor expressed in HEK293 cells", "format": "cell-based"}, "[2]": {"target": "T2, 5-hydroxytryptamine receptor 4 (Homo sapiens, UniProt Q13639)", "T2 sequence (Q13639 whole entry)": "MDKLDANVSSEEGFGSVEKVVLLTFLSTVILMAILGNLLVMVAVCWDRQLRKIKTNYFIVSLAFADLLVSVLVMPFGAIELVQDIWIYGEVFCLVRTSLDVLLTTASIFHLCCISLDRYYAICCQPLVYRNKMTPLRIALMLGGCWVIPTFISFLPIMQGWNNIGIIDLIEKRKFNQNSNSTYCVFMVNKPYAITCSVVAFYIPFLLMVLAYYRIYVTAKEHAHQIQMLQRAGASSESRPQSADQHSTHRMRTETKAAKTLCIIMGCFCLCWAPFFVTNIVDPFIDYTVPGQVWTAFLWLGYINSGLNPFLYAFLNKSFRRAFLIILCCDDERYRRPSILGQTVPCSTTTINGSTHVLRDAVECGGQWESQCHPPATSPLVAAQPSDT", "test": "Binding affinity to human 5HT4 receptor expressed in HEK293 cells by saturation binding method", "format": "cell-based"}, "[3]": {"target": "5-hydroxytryptamine receptor 2A (Homo sapiens, UniProt P28223)", "sequence (P28223 whole entry)": "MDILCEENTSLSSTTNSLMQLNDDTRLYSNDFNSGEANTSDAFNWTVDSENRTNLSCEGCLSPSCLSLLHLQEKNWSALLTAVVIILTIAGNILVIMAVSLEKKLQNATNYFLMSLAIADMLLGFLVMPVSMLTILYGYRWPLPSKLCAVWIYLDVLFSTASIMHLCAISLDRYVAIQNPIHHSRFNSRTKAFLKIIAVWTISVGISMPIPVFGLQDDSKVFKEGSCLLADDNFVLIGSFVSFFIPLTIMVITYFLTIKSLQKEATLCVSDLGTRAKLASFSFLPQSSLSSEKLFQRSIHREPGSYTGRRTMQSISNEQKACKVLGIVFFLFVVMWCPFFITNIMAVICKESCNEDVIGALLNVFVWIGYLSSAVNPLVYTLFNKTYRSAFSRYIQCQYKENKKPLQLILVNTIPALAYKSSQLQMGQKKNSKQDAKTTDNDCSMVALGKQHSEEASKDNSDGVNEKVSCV", "test": "biochemical", "format": "cell-based, HEK293"}, "[4]": {"target": "T2, 5-hydroxytryptamine receptor 4", "test": "Displacement of [N-methyl-3H]GR-113808 from human 5HT4 receptor expressed in HEK293 cells", "format": "cell-based"}}}
{"smiles": "NC(N)=NCCC[C@@H]1NC(=O)[C@H](Cc2c[nH]c3cc(Br)ccc23)NC1=O", "values": [{"measurement": "Ki", "setting": "[1]", "value": 4.63, "unit": "µM"}]}
{"smiles": "[3H]C([3H])([3H])n1cc(C(=O)OCC2CCN(CCNS(C)(=O)=O)CC2)c2ccccc21", "values": [{"measurement": "Kd", "setting": "[2]", "value": 0.0158, "unit": "µM"}]}
{"smiles": "N=C(N)NCCC[C@@H]1NC(=O)/C(=C/c2c[nH]c3cc(Br)ccc23)NC1=O", "note": "[BARETTIN]", "values": [{"measurement": "Ki", "setting": "[1]", "value": 0.34, "unit": "µM"}, {"measurement": "Ki", "setting": "[3]", "value": 1.93, "unit": "µM"}, {"measurement": "Ki", "setting": "[4]", "value": 1.91, "unit": "µM"}]}
{"smiles": "CC[C@@H](CO)NC(=O)[C@@H]1C=C2c3cccc4c3c(cn4C)C[C@H]2N(C)C1", "note": "[METHYSERGIDE]", "values": [{"measurement": "Ki", "setting": "[1]", "value": 0.0025, "unit": "µM"}]}
{"smiles": "CCCCCNC(=N)N/N=C/c1c[nH]c2ccc(OC)cc12", "note": "[TEGASEROD]", "values": [{"measurement": "Ki", "setting": "[4]", "value": 0.031, "unit": "µM"}]}
